Assay results published in publication PMC8464955, “Prediction of Drug–Drug Interaction Potential of Tegoprazan Using Physiologically Based Pharmacokinetic Modeling and Simulation” (Pharmaceutics, 2021).
Where two headings read alike, the source gives them in different places.

Columns and labels:
[1] = PBPK model (SimCYP) prediction of tegoprazan PK; design: species or system human; conditions: estimated from clinical data, single dose 50 mg
Description: (§1) A PBPK model of tegoprazan was built and verified by both the bottom-up approach using in vitro data for maintaining a mechanistic PBPK structure and the top-down approach using clinical PK results for maintaining a descriptive structure (Figure 1). The initial PBPK model of tegoprazan was constructed using physicochemical properties (e.g., molecular weight, log P, pKa), in vitro data (e.g., permeability, intrinsic clearance), and in vivo data (e.g., renal clearance) provided by HK inno.N Corp. (Seoul, Korea). The commercially available software SimCYP simulator v19 (SimCYP Limited, Certara, Sheffield, UK) was used to build the PBPK model and to generate the PK simulations. The PBPK-model-predicted PK profiles and parameters of tegoprazan were compared with the observed PK profiles and parameters from previously conducted clinical studies (Supplementary Table S1). The specific model configuration related to absorption, distribution, and elimination is described below.
The advanced dissolution, absorption, and metabolism model was used. The unbound fraction of the drug in enterocytes (fuGut) and the human jejunum effective permeability (Peff,man) were predicted because these values were not routinely measured (Table 1). […]
The elimination of the PBPK model consisted of enzyme kinetic and renal clearance (Table 1). Intrinsic clearances (CLint) of tegoprazan by various CYPs were determined by an in vitro study that measured the fraction of CLint inhibited by adding the inhibitors of CYP1A2, CYP2C9, CYP2C19, CYP2D6, and CYP3A to human liver microsomes (in-house data). […]
The PBPK model of tegoprazan as a single agent was verified using data from clinical studies of single- and multiple-dose administration of different dosages of tegoprazan. To verify the PK predictability of the PBPK model, the model-predicted PK profiles and parameters were compared with the observed PK profiles and parameters measured in clinical studies. […]

[2] = Phase 1 clinical PK studies of tegoprazan alone in healthy male adults (observed); format: in vivo; conditions: human, urine and plasma, single oral dose 100 mg, read-out: CLR (renal clearance) (converted)
Method: (§2) The established PBPK model was verified by applying the predicted values to the clinical PK data from various phase 1 studies conducted with healthy male adults (Supplementary Table S2). Brief information about the clinical studies follows: study 1 (single-dose PK study), a single dose of tegoprazan 25 mg and 50 mg was orally administered; study 2 (food effect study), a single dose of tegoprazan 50 mg was orally administered in both fasted and fed states; study 3 (bioequivalence study of two formulations), a single dose of two different formulations with tegoprazan 100 mg was orally administered; study 4 (multiple-dose PK study), multiple doses of tegoprazan 50 mg and 100 mg were orally administered once daily for 7 days; study 5 (DDI study with clarithromycin), multiple doses of tegoprazan 200 mg were orally administered once daily with or without multiple doses of clarithromycin 500 mg twice daily for 5 days; and study 6 (DDI study with clarithromycin and amoxicillin), multiple doses of tegoprazan 100 mg were orally administered twice daily with or without multiple doses of clarithromycin/amoxicillin 500/1000 mg twice daily for 5 days or 7 days.

[3] = Clinical DDI studies of tegoprazan with clarithromycin or clarithromycin/amoxicillin (observed); format: in vivo, human
Method: as §2
After refining and verifying the PBPK model of tegoprazan as a single agent, the DDI between tegoprazan and clarithromycin was finally verified using data from DDI clinical studies. To verify the predictability of the DDI estimated by the PBPK model of tegoprazan, the model-predicted PK profiles, parameters, and fold-increase of parameters were compared with the observed PK data measured in clinical studies (i.e., studies 5 and 6). In the case of study 6, the observed data were generated under the condition of triple administration of tegoprazan, clarithromycin, and amoxicillin. […] When simulating the DDI between tegoprazan and clarithromycin, the PBPK model of clarithromycin available in the SimCYP compound file was used.

[4] = cited from earlier work; for AUCτ Obs. / Cmax Obs. / AUCinf Obs.: mean; for Tmax Obs.: median
[5] = cited from earlier work; for AUCτ Obs. / Cmax Obs.: mean; for Tmax Obs.: median
[6] = Physicochemical properties (log P, pKa), experimental data; conditions: for pKa: ampholyte
Description: as §1

[7] = Parallel artificial membrane permeability assay (PAMPA); format: in vitro ADME
Description: The advanced dissolution, absorption, and metabolism model was used. The unbound fraction of the drug in enterocytes (fuGut) and the human jejunum effective permeability (Peff,man) were predicted because these values were not routinely measured (Table 1). The value of fuGut was predicted using the values of in vitro parameters, such as the octanol:water partition coefficient, the fraction of intracellular water, and other distribution-related parameters (in-house data). The value of Peff,man was predicted using parallel artificial membrane permeation assay permeability (in-house data).

[8] = tegoprazan 100 mg BID with vs without clarithromycin 500 mg BID + amoxicillin 1000 mg BID
[9] = tegoprazan 200 mg QD with vs without clarithromycin 500 mg BID
[10] = multiple oral doses 50 mg once daily for 7 days, ref NCT03009760
[11] = multiple oral doses 100 mg once daily for 7 days, ref NCT03009760
[12] = single oral dose 25 mg, ref NCT03530228
[13] = single oral dose 50 mg, NCT03530228
[14] = tegoprazan 100 mg BID + clarithromycin 500 mg BID + amoxicillin 1000 mg BID, 7 days
[15] = tegoprazan 100 mg BID alone for 4 days, once on day 5
[16] = tegoprazan 200 mg QD + clarithromycin 500 mg BID for 5 days, ref NCT02052336
[17] = tegoprazan 200 mg QD alone for 5 days, ref NCT02052336

With `Cc1nc2cc(C(=O)N(C)C)cc(O[C@H]3CCOc4cc(F)cc(F)c43)c2[nH]1` [tegoprazan] the “Q (blood flow between central compartment and SAC)” value [1] was 24.4 L/h, the “VSAC (volume of the single adjusted compartment)” value [1] was 0.66 L/kg and the Kp ([1]; male, human, oral, read-out: Kp scalar) was 0.33. For the same molecule, the CL renal [2] was 21.8 mL/min, the “Fold Increase Obs. AUCR” value [3, 8] was 2.69 and the “Fold Increase Obs. CmaxR” value [3, 8] was 2.24. The “Fold Increase Obs. AUCR” value [3, 9] was 2.57, the “Fold Increase Obs. CmaxR” value [3, 9] was 1.66 and the “AUCτ Obs.” value [4, 10] was 2954.9 ng·h/mL. For the same molecule, the “Cmax Obs.” value [4, 10] was 842.8 ng/mL, the “Tmax Obs.” value [4, 10] was 1.00 h and the “AUCτ Obs.” value [4, 11] was 4768.4 ng·h/mL. The “Cmax Obs.” value [4, 11] was 1149.7 ng/mL, the “Tmax Obs.” value [4, 11] was 1.25 h and the “AUCinf Obs.” value [4, 12] was 1340.0 ng·h/mL. The “Cmax Obs.” value [4, 12] was 335.6 ng/mL, the “Tmax Obs.” value [4, 12] was 0.75 h and the “AUCinf Obs.” value [4, 13] was 2903.0 ng·h/mL. The “Cmax Obs.” value [4, 13] was 759.1 ng/mL, the “Tmax Obs.” value [4, 13] was 1.00 h and the “AUCinf Obs.” value ([4]; single oral dose 100 mg) was 5998.1 ng·h/mL. For the same molecule, the “Cmax Obs.” value ([4]; single oral dose 100 mg) was 1434.5 ng/mL, the “Tmax Obs.” value ([4]; single oral dose 100 mg) was 1.00 h and the “DDI between tegoprazan and amoxicillin” value [5] was “negligible”. For the same molecule, the “apparent clearance, DDI study result” value ([5]; co-administration of clarithromycin) was 6.6 L/h, the “AUCτ Obs.” value [5, 14] was 16,045.0 μg∙h/L and the “Cmax Obs.” value [5, 14] was 2285.6 ng/mL. The “Tmax Obs.” value [5, 14] was 2.50 h, the “AUCτ Obs.” value [5, 15] was 5955.9 µg·h/L and the “Cmax Obs.” value [5, 15] was 1018.4 ng/mL. The “Tmax Obs.” value [5, 15] was 1.30 h, the “AUCτ Obs.” value [5, 16] was 27,796.4 μg∙h/L and the “Cmax Obs.” value [5, 16] was 3096.0 ng/mL. The “Tmax Obs.” value [5, 16] was 1.50 h, the “AUCτ Obs.” value [5, 17] was 10,817.6 μg∙h/L and the “Cmax Obs.” value [5, 17] was 1868.6 ng/mL. For the same molecule, the “Tmax Obs.” value [5, 17] was 1.00 h, the “apparent clearance, DDI study result” value ([5]; tegoprazan alone) was 17.7 L/h and the pKa ([6]; read-out: pKa 1) was 5.2. The pKa ([6]; read-out: pKa 2) was 12, the logP ([6]; octanol/water, read-out: Log P (octanol:water partition coefficient)) was 3 and the Papp [7] was 68.4 ×10⁻⁶ cm/s.
